# Laboratory results reported in US5120752A, “Cyclopropyl derivative lipoxygenase inhibitors” (Abbott Laboratories, priority 1990, dated 1992).
# Target: T1, 5-lipoxygenase (Rattus norvegicus, UniProt P12527)
# T1 construct: 20,000×g supernatant from 1.5 million homogenized RBL-1 cells; endogenous in cells; host or cells: RBL-1 cells (20,000×g supernatant of homogenate)
# T1 sequence (P12527 1-673): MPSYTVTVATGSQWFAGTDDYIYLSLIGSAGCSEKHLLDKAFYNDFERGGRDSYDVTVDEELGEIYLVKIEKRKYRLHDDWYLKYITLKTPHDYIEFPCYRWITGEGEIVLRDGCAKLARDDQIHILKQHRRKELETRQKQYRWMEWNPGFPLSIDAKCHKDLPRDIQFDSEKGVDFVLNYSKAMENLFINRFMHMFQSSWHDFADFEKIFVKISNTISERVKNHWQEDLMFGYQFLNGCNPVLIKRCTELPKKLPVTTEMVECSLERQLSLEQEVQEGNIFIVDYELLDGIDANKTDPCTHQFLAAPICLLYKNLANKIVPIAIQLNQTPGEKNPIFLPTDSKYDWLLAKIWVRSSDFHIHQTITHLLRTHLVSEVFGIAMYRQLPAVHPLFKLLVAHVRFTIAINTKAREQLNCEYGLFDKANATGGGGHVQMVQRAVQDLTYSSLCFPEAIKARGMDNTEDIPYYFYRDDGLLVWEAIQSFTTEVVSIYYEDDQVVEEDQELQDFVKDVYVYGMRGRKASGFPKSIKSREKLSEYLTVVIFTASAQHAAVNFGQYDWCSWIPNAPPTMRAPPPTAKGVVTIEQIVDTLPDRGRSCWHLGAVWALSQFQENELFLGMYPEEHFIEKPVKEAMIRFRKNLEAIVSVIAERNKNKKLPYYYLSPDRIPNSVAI
# Assay: In vitro inhibition of 5-lipoxygenase (20,000×g supernatant from homogenized RBL-1 cells, radiolabeled arachidonic acid)
# Format: biochemical
# Settings: 20,000×g supernatant of RBL-1 cells; triplicate; read-out: IC50 (in vitro inhibitory potency against 5-lipoxygenase)
# Experimental: Assays to determine 5-lipoxygenase inhibitory activity were performed in […] incubations containing the 20,000×g supernatant from 1.5 million homogenized RBL-1 cells and various concentrations of the test compound. Reactions were initiated by addition of radiolabeled arachidonic acid and terminated by acidification and ether extraction. Reaction products were separated from nonconverted substrate by thin layer chromatography and measured by liquid scintillation spectroscopy. All incubations were performed in triplicate. Inhibition of 5-lipoxygenase activity was calculated as the ratio of the amount of product formed in the presence and absence of inhibitor. IC50 values (concentration of compound producing 50% enzyme inhibition) were calculated by linear regression analysis of percentage inhibition versus log inhibitor concentration plots. (Dyer, R .D.; Haviv, F.; Hanel, A. M.; Bornemier, D. A.; Carter, G. W. Fed. Proc., Fed. Am. Soc. Exp. Biol. 1984, 43, 1462A).
row,Compound,IC50 [µM]
1,CC([C@H]1[C@H](c2ccccc2)C1(C)C)N(O)C(N)=O (stereo partly shown) [Example 24],0.1
2,"NC(=O)N(O)C[C@@H]1C[C@H]1c1ccc(OCc2ccccc2)cc1 (relative stereo) [Example 21, N-(1-trans-(2-(4-(phenylmethoxy)phenyl)cyclopropyl)methyl)-N-hydroxyurea]",0.05
3,"CC([C@@H]1C[C@H]1c1cc2ccccc2s1)N(O)C(N)=O (single isomer, unassigned) [Example 1b, N-(1-trans-(2-(benzo[b]thien-2-yl)cyclopropyl)ethyl)-N-hydroxyurea]",0.2
4,CN(O)C(=O)[C@@H]1C[C@H]1c1cccc(Oc2ccccc2)c1 (relative stereo) [Example 30],0.1
5,"NC(=O)N(O)C[C@@H]1C[C@H]1c1cccc(Oc2ccc(F)cc2)c1 (relative stereo) [Example 50, N-(1-trans-(2-(3-(4-fluorophenoxy)phenyl)cyclopropyl)methyl)-N-hydroxyurea]",0.1
6,"CC(=O)N(O)C(C)[C@@H]1C[C@H]1c1ccc(C)cc1 (stereo partly drawn) [Example 59, N-(1-trans-(2-(4-methylphenyl)cyclopropyl)ethyl)-N-hydroxyacetamide]",0.7
7,CC(=O)N(O)C(C)[C@@H]1C[C@H]1c1ccc2ccccc2c1 (stereo partly shown) [Example 57],0.3
8,"CC(=O)N(O)C[C@@H]1C[C@H]1c1ccc(Br)cc1 (relative stereo) [Example 38, N-(1-trans-(2-(4-bromophenyl)cyclopropyl)methyl)-N-hydroxyacetamide]",0.03
9,"NC(=O)N(O)C[C@@H]1C[C@H]1c1ccncc1 (relative stereo) [Example 43, N-(1-trans-(2-(4-pyridyl)cyclopropyl)methyl)-N-hydroxyurea]",5.7
10,"CC([C@@H]1C[C@H]1c1ccc(OCc2ccccc2)cc1)N(O)C(N)=O (stereo partly drawn) [Example 14, N-(1-trans-(2-(4-(phenylmethoxy)phenyl)cyclopropyl)ethyl)-N-hydroxyurea]",0.13
11,"CC([C@@H]1C[C@H]1c1cc2ccccc2s1)N(O)C(N)=O (single isomer, unassigned) [Example 1a, N-(1-trans-(2-(benzo[b]thien-2-yl)cyclopropyl)ethyl)-N-hydroxyurea]",0.3
12,"CC(C)Cc1ccc([C@@H]2C[C@H]2CN(O)C(N)=O)cc1 (relative stereo) [Example 20, N-(1-trans-(2-(4-(2-methyl-1-propyl)phenyl)cyclopropyl)-methyl)-N-hydroxyurea]",0.08
13,"Cc1ccc(Oc2cccc([C@@H]3C[C@H]3CN(O)C(N)=O)c2)cc1 (relative stereo) [Example 51, N-(1-trans-(2-(3-(4-methylphenoxy)phenyl)cyclopropyl)methyl)-N-hydroxyurea]",0.06
14,CC(C)c1ccc([C@@H]2C[C@H]2CN(O)C(N)=O)cc1 (relative stereo) [Example 63],0.3
15,"NC(=O)N(O)C[C@@H]1C[C@H]1c1cccc(Oc2ccncc2)c1 (relative stereo) [Example 49, N-(trans-(2-(3-(4-pyridyloxy)phenyl)cyclopropyl)methyl)-N-hydroxyurea]",0.4
16,"NC(=O)N(O)C[C@@H]1C[C@H]1c1ccc(Oc2ccccc2)cc1 (relative stereo) [Example 36, N-(1-trans-(2-(4-phenoxyphenyl)cyclopropyl)methyl)-N-hydroxyurea]",0.06
17,"CC(=O)N(O)C(C)[C@@H]1C[C@H]1c1ccc(Br)cc1 (single isomer, unassigned) [Example 44, N-(1-trans-(2-(4-bromophenyl)cyclopropyl)ethyl)-N-hydroxyacetamide]",0.1
18,"Cc1ccc([C@@H]2C[C@H]2CN(O)C(N)=O)cc1Oc1ccccc1 (relative stereo) [Example 61, N-(1-trans-(2-(4-methyl-3-phenoxyphenyl)cyclopropyl)methyl)-N-hydroxyurea]",0.2
19,"CC(C)Oc1ccc([C@@H]2C[C@H]2CN(O)C(N)=O)cc1Br (relative stereo) [Example 66, N-(1-trans-(2-(3-bromo-4-isopropoxyphenyl)cyclopropyl)-methyl)-N-hydroxyurea]",0.44

row,Compound,IC50 [µM]
1,CC(C)Oc1cccc([C@@H]2C[C@H]2CN(O)C(N)=O)c1 (relative stereo) [Example 64],1
2,"COc1ccc(Oc2cccc([C@@H]3C[C@H]3CN(O)C(N)=O)c2)cc1 (relative stereo) [Example 53, N-(1-trans-(2-(3-(4-methoxyphenoxy)phenyl)cyclopropyl)-methyl)-N-hydroxyurea]",0.1
3,"CC(C)Oc1ccc([C@@H]2C[C@H]2CN(O)C(N)=O)cc1 (relative stereo) [Example 67, N-(1-trans-(2-(4-isopropoxyphenyl)cyclopropyl)methyl)-N-hydroxyurea]",0.4
4,"CC([C@@H]1C[C@H]1CCc1ccccc1)N(O)C(N)=O (stereo partly drawn) [Example 32, N-(1-trans-(2(2-phenylethyl)cyclopropyl)ethyl)-N-hydroxyurea]",0.1
5,NC(=O)N(O)C[C@@H]1C[C@H]1c1cccnc1 (relative stereo) [Example 42],1.6
6,"CN(O)C(=O)[C@@H]1C[C@H]1c1ccccc1 (relative stereo) [Example 31, N-methyl-N-hydroxy-trans-2-phenylcyclopropyl carboxamide]",1.4
7,"CC([C@@H]1C[C@H]1c1ccc2ccccc2c1)N(O)C(N)=O (stereo partly drawn) [Example 45, N-(1-trans-((2-napthyl)cyclopropyl)ethyl)-N-hydroxyurea]",0.3
8,"CC([C@@H]1C[C@H]1c1ccc(Oc2ccccc2)cc1)N(O)C(N)=O (stereo partly drawn) [Example 2, N-(1-trans-(2-(4-phenoxyphenyl)cyclopropyl)ethyl)-N-hydroxyurea]",0.1
9,"COc1ccc([C@@H]2C[C@H]2CN(O)C(N)=O)cc1 (relative stereo) [Example 60, N-(1-trans-(2-(4-methoxyphenyl)cyclopropyl)methyl)-N-hydroxyurea]",1.5
10,"Cc1cccc([C@@H]2C[C@H]2CN(O)C(N)=O)n1 (relative stereo) [Example 62, N-(1-trans-(2-(6-methyl-2-pyridyl)cyclopropyl)methyl)-N-hydroxyurea]",7.6
11,"NC(=O)N(O)C[C@@H]1C[C@H]1c1cccc(Oc2ccccn2)c1 (relative stereo) [Example 48, N-(1-trans-(2-(3-(2-pyridyloxy)phenyl)cyclopropyl)methyl)-N-hydroxyurea]",0.4
12,"COc1ccc2cc([C@@H]3C[C@H]3CN(O)C(N)=O)ccc2c1 (relative stereo) [Example 18, N-(1-trans-(2-(6-methoxy-2-naphthyl)cyclopropyl)methyl)-N-hydroxyurea]",0.2
13,"CNC(=O)N(O)C(C)[C@@H]1C[C@H]1c1cc2ccccc2s1 (stereo partly drawn) [Example 8, N-(1-trans-(2-(benzo[b]thien-2-yl)cyclopropyl)ethyl)-N-hydroxy-N'-methylure]",0.2
14,"NC(=O)N(O)C[C@@H]1C[C@H]1c1cccc(Oc2ccc(OCc3ccccc3)cc2)c1 (relative stereo) [Example 54, N-(1-trans-(2-(3-(4-benzyloxyphenoxy)phenyl)cyclopropyl)-methyl)-N-hydroxyurea]",0.3
15,"CC(C1CC1c1ccco1)N(O)C(N)=O (stereo not drawn) [Example 65, N-(1-trans-(2-(2-furfuranyl)cyclopropyl)ethyl-N-hydroxyurea]",3.6
16,"CC(Oc1ccc([C@@H]2C[C@H]2C(C)N(O)C(N)=O)cc1)c1ccccc1 (stereo partly drawn) [Example 7, N-(1-trans-(2-(4-(1-phenylethoxy)phenyl)cyclopropyl)ethyl)-N-hydroxyurea]",0.4
17,"CC(=O)N(O)C[C@@H]1C[C@H]1c1ccc(C)cc1 (relative stereo) [Example 46, N-(1-trans-(2-(4-methylphenyl)cyclopropyl)methyl)-N-hydroxyacetamide]",0.3
18,"Cc1cc([C@@H]2C[C@H]2CN(O)C(N)=O)ccc1Oc1ccccc1 (relative stereo) [Example 56, N-(1-trans-(2-(3-methyl-4-phenoxy)phenylcylclopropyl)methyl)-N-hydroxyurea]",0.2
